Assay results published in patent US20230066830A1, “METHODS AND COMPOSITIONS FOR INDUCING APOPTOSIS IN CANCER STEM CELLS” (VIRGINIA COMMONWEALTH UNIVERSITY, priority 2019, published 2023).

Columns and labels:
[1] = target: T1, PDZ1 domain of MDA-9/Syntenin (PDZ12) (Homo sapiens, UniProt O00560); experiment: [15N,1H] HSQC chemical shift change ranking of compound affinity; assay type: binding; settings: chemical shift changes (DPPM) of backbone amide of residue 147, 50 μM PDZ12, compound at 1:1 molar ratio
T1 construct: HSQC spectrum of 50 μM PDZ12 caused by compound at 1:1 molar ratio
T1 sequence (O00560 110-273 limits assumed): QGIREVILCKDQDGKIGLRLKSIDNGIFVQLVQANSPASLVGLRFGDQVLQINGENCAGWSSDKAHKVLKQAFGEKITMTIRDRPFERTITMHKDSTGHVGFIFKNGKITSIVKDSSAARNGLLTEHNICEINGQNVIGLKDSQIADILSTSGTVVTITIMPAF
From the text: *Rank ordering of compound affinity for PDZ1 were estimated based on chemical shift changes (DPPM) of the backbone amide of residue 147 on the [^15N,^1H] […] Kd values reported in parentheses were obtained by NMR titration experiments following the chemical shifts of the backbone amide of residue 147 at different ligand concentrations.

[2] = test system: DU-145 and PC3-ML PCSCs; experiment: Live/Dead chemosensitivity of PCSCs with STAT3 inhibitor; assay type: cell-based, human; settings: STAT3 inhibitor with docetaxel or trichostatin-A
Protocol: Live/Dead cell imaging was performed to assess fluorescence based cell viability. Staining was performed as per the manufacturer's directions (Invitrogen™), which was followed by imaging utilizing laser confocal microscopy (Leica©). The images were analyzed by Zeiss© ZEN software. Docetaxel, STATTIC and Trichostatin-A (TSA) were obtained from Sigma. The PCSCs were serum-starved for 24 h and then treated with the drugs for 48 h at a 10 μM concentration (unless mentioned otherwise) prior to assessing the sensitivity of PCSCs to these drugs. DMSO treated cells were used as control. In vitro PDZ1i treatments occurred at 25 μM concentration. In vivo PDZ1i treatments occurred at 25 mg/kg body weight of the mice, 3 times a week for a month.

Binding affinity ranking [1]	SMILES	effect on PCSC chemosensitivity [2]
4 (4 for DPPM 0.06-0.08)	Cc1cc(=O)n2nc(COc3ccccc3)nc2[nH]1 [30A9]	
2 (2 for DPPM 0.02-0.04)	Cc1cc(=O)n2nc(C(=O)Nc3ccc(O)cc3)nc2[nH]1 [112D11]	
1 (1 for DPPM 0.00-0.02)	Cc1cc(=O)n2nc(C(=O)Nc3ccc(N)cc3)nc2[nH]1 [112E7]	
1 (1 for DPPM 0.00-0.02)	O=C(Nc1ccc(O)cc1)c1nc2[nH]c3c(c(=O)n2n1)CCC3 [112E12]	
1 (1 for DPPM 0.00-0.02)	Cc1cc(O)n2nc(C(=O)Nc3ccc(O)cc3)nc2n1 [112F1]	
4 (4 for DPPM 0.06-0.08)	O=C(Nc1ccc(O)c(Cl)c1)c1nc2[nH]c3c(c(=O)n2n1)CCC3 [112F10]	
2 (2 for DPPM 0.02-0.04)	O=C(Nc1ccc(O)c(F)c1)c1nc2[nH]c3c(c(=O)n2n1)CCC3 [112F12]	
6 (6 for DPPM above 0.1)	Cc1cc(=O)n2nc(C(=O)Nc3cc(Cl)c(O)c(Cl)c3)nc2[nH]1 [112G1]	
4 (4 for DPPM 0.06-0.08)	Cc1cc(=O)n2nc(C(=O)Nc3ccc(O)c(F)c3)nc2[nH]1 [112G2]	
6 (6 for DPPM above 0.1)	Cc1cc(=O)n2nc(C(=O)Nc3cc(Cl)c(N)cc3Cl)nc2[nH]1 [112G4]	
2 (2 for DPPM 0.02-0.04)	Nc1ccc(NC(=O)c2nc3[nH]c4c(c(=O)n3n2)CCC4)cc1 [112G11]	
2 (2 for DPPM 0.02-0.04)	Cc1cc(NC(=O)c2nc3[nH]c4c(c(=O)n3n2)CCC4)c(C)cc1NC(=O)CCc1nnc(-c2cccc(C(F)(F)F)c2)o1 [112H9]	
4 (4 for DPPM 0.06-0.08)	Cc1cc(NC(=O)c2nc3[nH]c4c(c(=O)n3n2)CCC4)c(C)cc1NC(=O)CCc1nnc(-c2ccccc2)o1 [113B7]	
5 (5 for DPPM 0.08-0.1)	Cc1c(C)c(NC(=O)c2nc3[nH]c4c(c(=O)n3n2)CCC4)c(C)c(C)c1N [113B8]	
N.B.	Cc1cc(NC(=O)c2nc3[nH]c4c(c(=O)n3n2)CCC4)c(C)cc1NC(=O)Cc1ccc(-c2ccccc2)cc1 [113B9]	
3 (3 for DPPM 0.04-0.06)	Cc1cc(NC(=O)c2nc3[nH]c4c(c(=O)n3n2)CCC4)c(C)cc1NC(=O)CCc1nnc(-c2ccsc2)o1 [113B11]	

Binding affinity ranking [1]	SMILES	effect on PCSC chemosensitivity [2]
1 (1 for DPPM 0.00-0.02)	COc1ccc(Br)c(-c2nnc(CCC(=O)Nc3cc(C)c(NC(=O)c4nc5[nH]c6c(c(=O)n5n4)CCC6)cc3C)o2)c1 [113B12]	
	O=[N+]([O-])c1ccc2c(c1)S(=O)(=O)C=C2 [STATTIC]	caused chemosensitivity to both docetaxel and trichostatin-A
2 (2 for DPPM 0.02-0.04)	Cc1cc(=O)n2nc(NCc3ccccc3)nc2[nH]1 [cmpd1]	
3 (3 for DPPM 0.04-0.06)	Cc1cc(=O)n2nc(CCc3ccccc3)nc2[nH]1 [cmpd2]	
1 (1 for DPPM 0.00-0.02)	O=c1c2c([nH]c3nc(NCc4cccs4)nn13)CCC2 [cmpd3]	
4 (4 for DPPM 0.06-0.08)	Cc1cc(=O)n2nc(SCc3ccccc3)nc2[nH]1 [cmpd4]	
2 (2 for DPPM 0.02-0.04)	Cc1[nH]c2nc(C(=O)NCc3ccccc3)nn2c(=O)c1C [cmpd5]	
1 (1 for DPPM 0.00-0.02)	O=c1[nH]c2sc3c(c2c2ncnn12)CCCC3 [cmpd6]	
2 (2 for DPPM 0.02-0.04)	Cc1cc(=O)n2nc(C(=O)Nc3ccc4c(c3)OCCO4)nc2[nH]1 [cmpd7]	
3 (3 for DPPM 0.04-0.06)	COc1cccc(NC(=O)c2nc3[nH]c(C)cc(=O)n3n2)c1 [cmpd8]	
3 (3 for DPPM 0.04-0.06)	Cc1cc(=O)n2nc(C(=O)Nc3ccc4c(c3)OCO4)nc2[nH]1 [cmpd9]	
4 (4 for DPPM 0.06-0.08)	Cc1cc(=O)n2nc(C(=O)Nc3cccc(Cl)c3)nc2[nH]1 [cmpd10]	
5 (5 for DPPM 0.08-0.1)	O=c1c2c([nH]c3nc(COc4ccccc4)nn13)CCC2 [cmpd11]	
3 (3 for DPPM 0.04-0.06)	O=c1c2c([nH]c3nc(CCc4ccccc4)nn13)CCC2 [cmpd13]	
1 (1 for DPPM 0.00-0.02)	CCCc1cc(=O)n2nc(COc3ccccc3)nc2[nH]1 [cmpd14]	
